Reference: patent US20090317496A1, “Method for Preventing and Treating the Disease Caused by Vascular Damage and the Use Thereof” (priority 2005, published 2009)

How the values were obtained:
[1] = system: retinal vascular endothelial cell; assay: MTT assay, apoptosis of retinal vascular endothelial cell caused by the lack of serum; type: cell-based, human; details: FBS free medium, 10 μg/ml, 24 hours; FIG. 3c
Protocol: (§1) The HUVEC (human umbilical venous endothelial cell) and retinal vascular endothelial cell (cell-systems, USA) were incubated at M199 medium containing 20% (w/v) FBS (HyClone, Canada), 100 units/m ? of penicillin (Invitrogen, USA), 100 μg/m ? of streptomycin (Invitrogen, USA), 3 ng/m ? of bFGF (basic fibroblast growth factor, Upstate Biotechnology, USA) and 5 units/m ? of heparin (Life Technologies, USA) under 5% CO2 gas condition at 37° C. (See FIG. 2a and FIG. 2b).
(§2) To investigate the suppression effect of SG was determined by (3-[4,5-dimethylthiazol-2-yl]-2,5-diphenyl tetrazolium bromide (MTT) assay method disclosed in the literature (Wang Z et al., Biol., Pharm. Bull., 24, pp 159-162, 2001).
(§3) HUVEC and retinal vascular endothelial cell were spread on 24-well plates (3×10^4 cells/well) and were incubated for 24 hours. The mediums were substituted with new medium containing 20% (w/v) FBS and FBS free medium respectively. The FBS free medium was treated with various concentrations of SG, i.e., 0, 1, 5, 10, 20 μg/m ? . The medium was incubated for 24 hours. After the incubation, MTT assay was performed.
(§4) To investigate the suppressive effect of SG, Rb1, Rg1, Re, Rg3, Rg5 and Rk1 on the cell apoptosis if retinal vascular endothelial cell caused by the lack of serum, the effect were determined by (3-[4,5-dimethylthiazol-2-yl]-2,5-diphenyl tetrazolium bromide (MTT) assay method disclosed in the literature (Wang Z et al., Biol., Pharm. Bull., 24, pp 159-162, 2001).
(§5) HUVEC and retinal vascular endothelial cell were spread on 24-well plates (3×10^4 cells/well) and were incubated for 24 hours respectively. The mediums were substituted with new medium containing 20% (w/v) FBS and FBS free medium respectively. The FBS free medium was treated with 10 μg/m ? of SG, Rb1, Rg1, Re, Rg3, Rg5 and Rk1 and the medium was incubated for 24 hours. After the incubation, MTT assay was performed.

[2] = system: tight junction proteins ZO-1, ZO-2 and occludin; assay: Western blot of tight junction proteins in human retinal vascular endothelial cells; type: cell-based; details: human retinal endothelial cell, FIG. 6a
Protocol: Human retinal vascular endothelial cell were spread on 60 mm dish (3×10^5 cells/well) and were incubated for 24 hours.
The cells were transferred to human endothelial SFM-basal growth medium (Invitrogen, USA), incubated for 24 hours and transferred to new human endothelial SFM-basal growth medium again. The medium was treated with 20 ng/m ? of VEGF (vascular endothelial growth factor) and Rk1, and incubated for 6 hours. After the incubation, the cells were collected to induce lysis and western blot analysis was performed.

[3] = system: tight junction protein ZO-1, ZO-2 and occludin; assay: Immunocytochemistry of tight junction proteins in mouse retina; type: in vivo, C57/BL6 mice
[4] = system: tight junction proteins ZO-1, ZO-2 and occludin; assay: Western blot of tight junction proteins in mouse retina; type: in vivo, C57/BL6 mice; details: FIG. 6b
[5] = system: vascular endothelial cells (HUVEC); assay: MTT assay, Rk1 on apoptosis of vascular endothelial cell caused by the lack of serum; type: cell-based, human; details: FBS free medium, Rk1 0, 0.5, 1, 5, 10 μg/ml, 24 hours; FIG. 4
Protocol: FIG. 4 is the result of MTT assay showing suppressive effect of Rk1 on the apoptosis of HUVEC in medium,
as §3, with “Vascular” for “HUVEC and retinal vascular”, “Rk1,” for “SG,”, “0, 0.5,” for “0,”, “10” for “10, 20”, “and” for “. The medium was”

[6] = system: HUVEC (human umbilical venous endothelial cell); assay: MTT assay, apoptosis of HUVEC caused by the lack of serum; type: cell-based; details: FBS free medium, 10 μg/ml, 24 hours; FIG. 3c
Protocol: as §1, §2, §3, §4, §5

[7] = system: tight junction protein ZO-1, ZO-2 and occludin; assay: Immunocytochemistry of tight junction proteins in human retinal vascular endothelial cells; type: cell-based; details: human retinal endothelial cell
Protocol: Human retinal vascular endothelial cell were spread on 35 mm dish (2×10^5 cells/well) and were incubated for 24 hours. The cells were transferred to human endothelial SFM-basal growth medium (Invitrogen, USA), incubated for 24 hours and transferred to new human endothelial SFM-basal growth medium again. The medium was treated with 20 ng/m ? of VEGF (vascular endothelial growth factor) and Rk1, and incubated for 6 hours. After the incubation, the medium was washed with PBS solution and immunocytochemistry analysis was performed to determine the change of tight junction protein.

[8] = system: retinal vessel of C57/BL6 mice; assay: Angiography with FITC-dextran, permeability of retinal vessel; type: in vivo; details: FIG. 11
Protocol: Both of 100 ng of VEGF and 30 μg of Rk1 were injected into the retina of C57/BL6 mice (Orient, Korea). After 24 hours, the mice were anesthetized and FITC-dextran was injected into the heart to allow fluorescent material to flow in blood. […] In the only VEGF-injected mice, it has been confirmed that the fluorescent material was exuded from neighboring tissues around blood vessel caused by the increased permeability of retinal vessel however the exudation in VEGF was recovered by the treatment of Rk1.
Likewise, it has been also confirmed that the fluorescent material was exuded from neighboring tissues around blood vessel caused by the increased permeability of retinal vessel in diabetes induced mice however the exudation was recovered by the treatment of Rk1.

[9] = system: vascular endothelial cells (HUVEC); assay: DAPI staining, DNA fragmentation of vascular endothelial cell caused by the lack of serum; type: cell-based, human; details: FBS free medium, Rk1 0, 0.5, 1, 5, 10 μg/ml, 24 hours; FIG. 5
Protocol: FIG. 5 is the result of staining with DAPI showing suppressive effect of Rk1 on the apoptosis of HUVEC in medium,
Vascular endothelial cell were spread on 35 mm dish (1.5×10^5 cells/well) and were incubated for 24 hours. The mediums were substituted with new medium containing 20% (w/v) FBS and FBS free medium respectively. The FBS free medium was treated with various concentrations of Rk1, i.e., 0, 0.5, 1, 5, 10 μg/m ? and incubated for 24 hours. After the incubation, the medium was washed with PBS solution 2 times, fixed with 2% of paraformaldehyde and washed with PBS solution 2 times again. DAPI (4′,6-Diamidino-2-phenylindole-2-HCl. Calbiochem, USA) solution was added thereto, incubated for 30 minutes in darkroom and washed with PBS two times. The DNA fragmentation was measured by fluorescent microscope (Fluorescent microscope, Axioplan2, ZEISS, Germany) after mounting with cover slip.

Structure (SMILES): CC(C)=CCC[C@](C)(O[C@@H]1O[C@H](CO)[C@@H](O)[C@H](O)[C@H]1O)[C@H]1CC[C@]2(C)[C@@H]1[C@H](O)C[C@@H]1[C@@]3(C)CC[C@H](O)C(C)(C)[C@@H]3[C@@H](O[C@@H]3O[C@H](CO)[C@@H](O)[C@H](O)[C@H]3O[C@@H]3O[C@@H](C)[C@H](O)[C@@H](O)[C@H]3O)C[C@]12C [Re, ginsenoside Re, reference compound]
- apoptosis and cell viability of retinal vascular endothelial cells (MTT assay) [1]: did not

Structure (SMILES): C=C(CCC=C(C)C)[C@H]1CC[C@]2(C)[C@@H]1[C@H](O)C[C@@H]1[C@@]3(C)CC[C@H](O[C@@H]4O[C@H](CO)[C@@H](O)[C@H](O)[C@H]4O[C@@H]4O[C@H](CO)[C@@H](O)[C@H](O)[C@H]4O)C(C)(C)[C@@H]3CC[C@]12C [Rk1, ginsenoside Rk1]
- recovering effect on the decrease of tight junction proteins ZO-1, ZO-2 and occludin (western blot) ([2]; decrease caused by AGE (advanced glycation end product)): potent recovering effect
- recovering effect on the decrease of tight junction proteins ZO-1, ZO-2 and occludin (western blot) ([2]; decrease caused by VEGF 20 ng/ml, 6 hours): potent recovering effect
- recovering effect on the decrease of tight junction protein ZO-1, ZO-2 and occludin (immunocytochemistry) ([3]; decrease caused by VEGF 100 ng, 30 μg Rk1 injected into the retina, 24 hours, mouse, FIG. 9): potent recovering effect
- recovering effect on the decrease of tight junction protein ZO-1, ZO-2 and occludin (immunocytochemistry) ([3]; decrease caused by diabetes, mouse retina, FIG. 10): potent recovering effect
- recovering effect on the decrease of tight junction proteins ZO-1, ZO-2 and occludin (western blot) ([4]; decrease caused by VEGF 100 ng, 30 μg Rk1 injected into the retina, 24 hours, mouse): potent recovering effect
- recovering effect on the decrease of tight junction proteins ZO-1, ZO-2 and occludin (western blot) ([4]; decrease caused by diabetes, mouse retina): potent recovering effect
- apoptosis and cell viability of vascular endothelial cells (MTT assay) [5]: inhibited the apoptosis
- apoptosis and cell viability of HUVEC (MTT assay) [6]: inhibited the apoptosis
- recovering effect on the decrease of tight junction protein ZO-1, ZO-2 and occludin (immunocytochemistry) ([7]; decrease caused by AGE, FIG. 7): potent recovering effect
- recovering effect on the decrease of tight junction protein ZO-1, ZO-2 and occludin (immunocytochemistry) ([7]; decrease caused by VEGF 20 ng/ml, 6 hours, FIG. 8): potent recovering effect
- exudation of fluorescent material (increased permeability of retinal vessel), angiography ([8]; VEGF 100 ng and 30 μg Rk1 injected into the retina, 24 hours, mouse): recovered
- exudation of fluorescent material (increased permeability of retinal vessel), angiography ([8]; diabetes induced mice): recovered
- apoptosis and cell viability of retinal vascular endothelial cells (MTT assay) [1]: inhibited the apoptosis
- DNA fragmentation of vascular endothelial cells (DAPI) [9]: suppressed the DNA fragmentation

Structure (SMILES): CC(C)=CCC[C@](C)(O[C@@H]1O[C@H](CO)[C@@H](O)[C@H](O)[C@H]1O)[C@H]1CC[C@]2(C)[C@@H]1[C@H](O)C[C@@H]1[C@@]3(C)CC[C@H](O)C(C)(C)[C@@H]3[C@@H](O[C@@H]3O[C@H](CO)[C@@H](O)[C@H](O)[C@H]3O)C[C@]12C [Rg1, ginsenoside Rg1, reference compound]
- apoptosis and cell viability of retinal vascular endothelial cells (MTT assay) [1]: did not

Structure (SMILES): CC(C)=CCC[C@](C)(O[C@@H]1O[C@H](CO[C@@H]2O[C@H](CO)[C@@H](O)[C@H](O)[C@H]2O)[C@@H](O)[C@H](O)[C@H]1O)[C@H]1CC[C@]2(C)[C@@H]1[C@H](O)C[C@@H]1[C@@]3(C)CC[C@H](O[C@@H]4O[C@H](CO)[C@@H](O)[C@H](O)[C@H]4O[C@@H]4O[C@H](CO)[C@@H](O)[C@H](O)[C@H]4O)C(C)(C)[C@@H]3CC[C@]12C [Rb1, ginsenoside Rb1, reference compound]
- apoptosis and cell viability of retinal vascular endothelial cells (MTT assay) [1]: did not

Structure (SMILES): CC(C)=CCC[C@](C)(O)[C@H]1CC[C@]2(C)[C@@H]1[C@H](O)C[C@@H]1[C@@]3(C)CC[C@H](O[C@@H]4O[C@H](CO)[C@@H](O)[C@H](O)[C@H]4O[C@@H]4O[C@H](CO)[C@@H](O)[C@H](O)[C@H]4O)C(C)(C)[C@@H]3CC[C@]12C [Rg3, ginsenoside Rg3]
- apoptosis and cell viability of HUVEC (MTT assay) [6]: inhibited the apoptosis
- apoptosis and cell viability of retinal vascular endothelial cells (MTT assay) [1]: inhibited the apoptosis

Structure (SMILES): CC(C)=CC/C=C(\C)[C@H]1CC[C@]2(C)[C@@H]1[C@H](O)C[C@@H]1[C@@]3(C)CC[C@H](O[C@@H]4O[C@H](CO)[C@@H](O)[C@H](O)[C@H]4O[C@@H]4O[C@H](CO)[C@@H](O)[C@H](O)[C@H]4O)C(C)(C)[C@@H]3CC[C@]12C [Rg5, ginsenoside Rg5]
- apoptosis and cell viability of HUVEC (MTT assay) [6]: inhibited the apoptosis
- apoptosis and cell viability of retinal vascular endothelial cells (MTT assay) [1]: inhibited the apoptosis
